{
  "source": "patent US8912188B2",
  "about": "“Substituted quinoxaline carboxylic acids for the inhibition of PASK” (BioEnergenix, LLC, priority 2011, dated 2014)",
  "key": {"[1]": {"biological_target": "T1, PASK (UniProt #Q96RG2; human recombinant N-terminal GST tagged construct, residues 879-1323) (Homo sapiens, UniProt Q96RG2)", "T1 construct": "human recombinant N-terminal GST tagged construct, residues 879-1323; GST (N); host or cells: insect cells", "T1 sequence (Q96RG2 879-1323, stated change not applied)": "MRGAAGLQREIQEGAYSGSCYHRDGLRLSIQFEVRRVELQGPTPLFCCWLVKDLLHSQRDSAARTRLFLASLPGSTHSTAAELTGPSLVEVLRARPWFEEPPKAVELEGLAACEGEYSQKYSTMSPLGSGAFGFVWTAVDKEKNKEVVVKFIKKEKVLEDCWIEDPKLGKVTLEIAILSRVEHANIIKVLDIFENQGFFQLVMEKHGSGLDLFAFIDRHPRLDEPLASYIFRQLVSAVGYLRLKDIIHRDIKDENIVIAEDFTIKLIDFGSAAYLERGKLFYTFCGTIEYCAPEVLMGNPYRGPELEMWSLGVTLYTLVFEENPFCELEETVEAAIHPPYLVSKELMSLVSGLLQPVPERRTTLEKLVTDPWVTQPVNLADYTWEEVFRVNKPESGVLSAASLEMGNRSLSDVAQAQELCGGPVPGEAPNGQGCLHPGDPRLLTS", "experiment": "PASK ATP Radiochemical Assay", "format": "biochemical", "conditions": "33P-ATP, Myelin Basic Protein substrate, 120 min at room temperature, read-out: IC50 Kinase Domain", "description": "Biochemical Assay for hPASK Activity\nPASK ATP Radiochemical Assay\nTest compounds in DMSO are then added and the mixture, followed by delivery of ^33P-ATP (specific activity 0.01 μCi/μl final) to initiate the reaction. […] The entire reaction mixture is washed through onto a P81 Phosphocellulose paper and washed three times for 10 minutes in 75 mM phosphoric acid and once in methanol prior to drying and scintillation counting."}, "[2]": {"biological_target": "T2, PASK (Invitrogen) (Homo sapiens, UniProt Q96RG2)", "T2 construct": "IC50 Kinase Domain; purchased Invitrogen", "T2 sequence (Q96RG2 999-1251 limits assumed)": "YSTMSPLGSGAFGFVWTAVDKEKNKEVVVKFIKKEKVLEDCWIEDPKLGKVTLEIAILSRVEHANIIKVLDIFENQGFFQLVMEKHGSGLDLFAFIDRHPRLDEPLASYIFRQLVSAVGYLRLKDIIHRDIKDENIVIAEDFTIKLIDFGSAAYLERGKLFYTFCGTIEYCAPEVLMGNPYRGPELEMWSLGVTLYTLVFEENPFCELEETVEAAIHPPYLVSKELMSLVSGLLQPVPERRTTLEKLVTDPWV", "experiment": "PAS Kinase FRET Assay", "format": "biochemical", "conditions": "PAS kinase TR-FRET assay (665 nm/615 nm), 2 hours at 25° C.; read-out: IC50 Kinase Domain"}, "[3]": {"experiment": "In vivo pharmacokinetics in the Sprague Dawley rat", "conditions": "for bioavailability / half-life: blood; for bioavailability: po, 10 mg/kg; for bioavailability / half-life / volume of distribution: summary of Table 3; for t1/2 (half-life): intravenous 3 mg/kg (1 mg/kg for Example 105), oral 10 mg/kg; for Cl (clearance) / Vss (volume of distribution): intravenous via tail vein, 3 mg/kg (1 mg/kg for Example 105); for Tmax (time to maximum blood concentration after an oral dose): oral gavage 10 mg/kg; for F (oral bioavailability): oral gavage 10 mg/kg vs intravenous 3 mg/kg (1 mg/kg for Example 105)", "description": "Pharmacokinetics of a PASK Inhibitor\nThe test compounds were formulated in polyethylene glycol and beta cyclodextrin in water for administration at 1 mg/kg for Example 105, and at 3 mg/kg for Example 14, 15, and 18 for intravenous administration via the tail vein and 10 mg/kg for oral administration by gavage. Blood samples were collected at 0.083, 0.25, 0.5, 1, 2, 4, 6, 8, and 24 hours and the samples were analyzed for test compounds content using LC/MS/MS. The data was submitted to pharmacokinetic analysis using WinNonLin software and the observed and calculated pharmacokinetic parameters are shown in Table 3 for each compound."}},
  "data": [
    {"smiles": "C[C@H]1CCCN1c1nc2cc(C(=O)O)ccc2nc1-c1cc2ccccc2o1", "note": "[Example 14, (S)-2-(Benzofuran-2-yl)-3-(2-methylpyrrolidin-1-yl)quinoxaline-6-carboxylic acid]", "values": [
      {"measurement": "IC50", "setting": "[1]", "result": "< 10", "unit": "µM"},
      {"measurement": "IC50", "setting": "[2]", "result": "< 10", "unit": "µM"},
      {"measurement": "bioavailability", "setting": "[3]", "result": "≥ 63", "unit": "%"},
      {"measurement": "half-life", "setting": "[3]", "result": "≥ 3", "unit": "h"},
      {"measurement": "t1/2 (half-life)", "setting": "[3]", "result": 3.68, "unit": "h"},
      {"measurement": "Cl (clearance)", "setting": "[3]", "result": 1.72, "unit": "mL/min/kg"},
      {"measurement": "Vss (volume of distribution)", "setting": "[3]", "result": 0.362, "unit": "L/kg"},
      {"measurement": "Tmax (time to maximum blood concentration after an oral dose)", "setting": "[3]", "result": 6, "unit": "h"},
      {"measurement": "F (oral bioavailability)", "setting": "[3]", "result": 63.4, "unit": "%"},
      {"measurement": "volume of distribution", "setting": "[3]", "result": "low"}
    ]},
    {"smiles": "CN(c1nc2cc(C(=O)O)ccc2nc1-c1cc2ccccc2o1)C1CC1", "note": "[Example 15, 2-(Benzofuran-2-yl)-3-(cyclopropyl(methyl)amino)quinoxaline-6-carboxylic acid]", "values": [
      {"measurement": "IC50", "setting": "[1]", "result": "< 10", "unit": "µM"},
      {"measurement": "IC50", "setting": "[2]", "result": "< 10", "unit": "µM"},
      {"measurement": "bioavailability", "setting": "[3]", "result": "≥ 63", "unit": "%"},
      {"measurement": "half-life", "setting": "[3]", "result": "≥ 3", "unit": "h"},
      {"measurement": "t1/2 (half-life)", "setting": "[3]", "result": 3.39, "unit": "h"},
      {"measurement": "Cl (clearance)", "setting": "[3]", "result": 1.4, "unit": "mL/min/kg"},
      {"measurement": "Vss (volume of distribution)", "setting": "[3]", "result": 0.347, "unit": "L/kg"},
      {"measurement": "Tmax (time to maximum blood concentration after an oral dose)", "setting": "[3]", "result": 6, "unit": "h"},
      {"measurement": "F (oral bioavailability)", "setting": "[3]", "result": 79, "unit": "%"},
      {"measurement": "volume of distribution", "setting": "[3]", "result": "low"}
    ]},
    {"smiles": "CC(C)N(C)c1nc2cc(C(=O)O)ccc2nc1-c1cc2cc(F)ccc2o1", "note": "[Example 18, 2-(5-Fluorobenzofuran-2-yl)-3-(isopropyl(methyl)amino)quinoxaline-6-carboxylic acid]", "values": [
      {"measurement": "IC50", "setting": "[1]", "result": "< 10", "unit": "µM"},
      {"measurement": "IC50", "setting": "[2]", "result": "< 10", "unit": "µM"},
      {"measurement": "bioavailability", "setting": "[3]", "result": "≥ 63", "unit": "%"},
      {"measurement": "half-life", "setting": "[3]", "result": "≥ 3", "unit": "h"},
      {"measurement": "t1/2 (half-life)", "setting": "[3]", "result": 7.72, "unit": "h"},
      {"measurement": "Cl (clearance)", "setting": "[3]", "result": 1.33, "unit": "mL/min/kg"},
      {"measurement": "Vss (volume of distribution)", "setting": "[3]", "result": 0.366, "unit": "L/kg"},
      {"measurement": "Tmax (time to maximum blood concentration after an oral dose)", "setting": "[3]", "result": 8, "unit": "h"},
      {"measurement": "F (oral bioavailability)", "setting": "[3]", "result": 74.8, "unit": "%"},
      {"measurement": "volume of distribution", "setting": "[3]", "result": "low"}
    ]},
    {"smiles": "C[C@H]1COCCN1c1nc2cc(C(=O)O)ccc2nc1-c1ccc(F)cc1", "note": "[Example 105, (S)-2-(4-Fluorophenyl)-3-(3-methylmorpholino)quinoxaline-6-carboxylic acid]", "values": [
      {"measurement": "IC50", "setting": "[1]", "result": "< 10", "unit": "µM"},
      {"measurement": "IC50", "setting": "[2]", "result": "< 10", "unit": "µM"},
      {"measurement": "bioavailability", "setting": "[3]", "result": "> 74", "unit": "%"},
      {"measurement": "half-life", "setting": "[3]", "result": "> 7", "unit": "h"},
      {"measurement": "t1/2 (half-life)", "setting": "[3]", "result": 7.72, "unit": "h"},
      {"measurement": "Cl (clearance)", "setting": "[3]", "result": 0.712, "unit": "mL/min/kg"},
      {"measurement": "Vss (volume of distribution)", "setting": "[3]", "result": 0.407, "unit": "L/kg"},
      {"measurement": "Tmax (time to maximum blood concentration after an oral dose)", "setting": "[3]", "result": 1, "unit": "h"},
      {"measurement": "F (oral bioavailability)", "setting": "[3]", "result": 74.8, "unit": "%"},
      {"measurement": "volume of distribution", "setting": "[3]", "result": "low"}
    ]},
    {"smiles": "C[C@H]1CCCN1c1nc2cc(C(=O)O)ccc2nc1-c1ccc(F)cc1F", "note": "[Example 115, (S)-2-(2,4-Difluorophenyl)-3-(2-methylpyrrolidin-1-yl)quinoxaline-6-carboxylic acid]", "values": [
      {"measurement": "IC50", "setting": "[1]", "result": "< 10", "unit": "µM"},
      {"measurement": "IC50", "setting": "[2]", "result": "< 10", "unit": "µM"}
    ]},
    {"smiles": "C[C@H]1CCCCN1c1nc2cc(C(=O)O)ccc2nc1-c1ccc(F)cc1F", "note": "[Example 116, (S)-2-(2,4-Difluorophenyl)-3-(2-methylpiperidin-1-yl)quinoxaline-6-carboxylic acid]", "values": [
      {"measurement": "IC50", "setting": "[1]", "result": "< 10", "unit": "µM"},
      {"measurement": "IC50", "setting": "[2]", "result": "< 10", "unit": "µM"}
    ]},
    {"smiles": "CC(C)N(C)c1nc2cc(C(=O)O)c(O)cc2nc1-c1ccc(F)cc1", "note": "[Example 120, 2-(4-Fluorophenyl)-7-hydroxy-3-(isopropyl(methyl)amino)quinoxaline-6-carboxylic acid]", "values": [
      {"measurement": "IC50", "setting": "[1]", "result": "< 10", "unit": "µM"},
      {"measurement": "IC50", "setting": "[2]", "result": "< 10", "unit": "µM"}
    ]},
    {"smiles": "C[C@@H]1CCCCN1c1nc2cc(C(=O)O)ccc2nc1-c1ccc(F)cc1", "note": "[Example 121, (R)-2-(4-Fluorophenyl)-3-(2-methylpiperidin-1-yl)quinoxaline-6-carboxylic acid]", "values": [
      {"measurement": "IC50", "setting": "[1]", "result": "< 10", "unit": "µM"},
      {"measurement": "IC50", "setting": "[2]", "result": "< 10", "unit": "µM"}
    ]},
    {"smiles": "CN(c1nc2cc(C(=O)O)ccc2nc1-c1ccc(F)cc1)C1CCCC1", "note": "[Example 135, 3-(Cyclopentyl(methyl)amino)-2-(4-fluorophenyl)quinoxaline-6-carboxylic acid]", "values": [
      {"measurement": "IC50", "setting": "[1]", "result": "< 10", "unit": "µM"},
      {"measurement": "IC50", "setting": "[2]", "result": "< 10", "unit": "µM"}
    ]},
    {"smiles": "CCCN(CCC)c1nc2cc(C(=O)O)ccc2nc1-c1ccc(F)cc1", "note": "[Example 140, 3-(Dipropylamino)-2-(4-fluorophenyl)quinoxaline-6-carboxylic acid]", "values": [
      {"measurement": "IC50", "setting": "[1]", "result": "< 10", "unit": "µM"},
      {"measurement": "IC50", "setting": "[2]", "result": "< 10", "unit": "µM"}
    ]},
    {"smiles": "CN(c1nc2cc(C(=O)O)ccc2nc1-c1ccc(F)cc1)C1CCC1", "note": "[Example 146, 3-(Cyclobutyl(methyl)amino)-2-(4-fluorophenyl)quinoxaline-6-carboxylic acid]", "values": [
      {"measurement": "IC50", "setting": "[1]", "result": "< 10", "unit": "µM"},
      {"measurement": "IC50", "setting": "[2]", "result": "< 10", "unit": "µM"}
    ]},
    {"smiles": "CC(C)N(C)c1nc2cc(C(=O)O)ccc2nc1-c1ccc(F)cc1F", "note": "[Example 147, 2-(2,4-Difluorophenyl)-3-[methyl(propan-2-yl)amino]quinoxaline-6-carboxylic acid]", "values": [
      {"measurement": "IC50", "setting": "[1]", "result": "< 10", "unit": "µM"},
      {"measurement": "IC50", "setting": "[2]", "result": "< 10", "unit": "µM"}
    ]},
    {"smiles": "C[C@H]1CCCN1c1nc2cc(C(=O)O)ccc2nc1-c1ccc(F)c(F)c1", "note": "[Example 148, (S)-2-(3,4-Difluorophenyl)-3-(2-methylpyrrolidin-1-yl)quinoxaline-6-carboxylic acid]", "values": [
      {"measurement": "IC50", "setting": "[1]", "result": "< 10", "unit": "µM"},
      {"measurement": "IC50", "setting": "[2]", "result": "< 10", "unit": "µM"}
    ]},
    {"smiles": "CC(=O)Nc1ccc(-c2nc3ccc(C(=O)O)cc3nc2N(C)C(C)C)cc1", "note": "[Example 149, 2-(4-Acetamidophenyl)-3-[methyl(propan-2-yl)amino]quinoxaline-6-carboxylic acid]", "values": [
      {"measurement": "IC50", "setting": "[1]", "result": "< 10", "unit": "µM"},
      {"measurement": "IC50", "setting": "[2]", "result": "< 10", "unit": "µM"}
    ]}
  ]
}
